{"source": "patent US10022527B2", "about": "“Immersion device” (BSN medical GmbH, priority 2013, dated 2018)", "key": {"[1]": {"conditions": "cited from earlier work"}, "[2]": {"conditions": "cited from earlier work", "remark": "listed apart in the source"}, "[3]": {"test": "Stability test of the NO content of the UV-generated NO-containing buffer solution (chemiluminescence detection)", "format": "physicochemical", "conditions": "approximately 150 μM NO in buffered tap water pH 7.0 with 1.45 mM NaNO2 and 10 mM Na ascorbate; over a time span of 20 minutes; not statistically significant", "method": "(§1) The NO-generating unit contained tap water, buffer salts (8 g/l NaCl+0.2 g/l KCl+1.424 g/l Na2HPO4+0.2 g/l KH2PO4, pH=7.0), 1.45 mM NaNO2 and 10 mM Na ascorbate.\n(§2) UV radiation of this solution containing nitrite yielded a solution that contained approximately 150 μM NO. The stability of the generated NO and the occurrence of oxidation products were analyzed on the basis of this solution. Moreover, the effect in terms of perfusion and erythema formation was tested within the scope of its use as a foot bath.\nThis solution first underwent a stability test, that is to say, it was ascertained how the content of NO changes over a time span of 20 minutes. Every two minutes an aliquot of 10 ml of the bathing solution was pipetted into a flask (volume capacity of 175 ml) through which helium gas was flowing (100 ml/min) and which had already been filled with 40 ml of a PBS solution (pH of 7.4). During the entire procedure, the helium-gas mixtures escaping from the flask were conveyed directly into an NO analysis unit (Chemiluminescence Detector—CLD 822 Sr made by Eco Physics of Duernten, Switzerland) which detected and recorded the NO amounts in ppm (parts per million) that were contained in the gas mixture (in this context, also see Opländer et al. 2010—Nitric Oxide—Bio. Ch. 23: 275-283). […]"}, "[4]": {"test": "Generation of oxidation products (NO2) in the NO-containing solution", "format": "physicochemical", "conditions": "same solution", "method": "as §1, §2\nThis solution first underwent a stability test, that is to say, it was ascertained how the content of NO changes over a time span of 20 minutes. […] During the entire procedure, the helium-gas mixtures escaping from the flask were conveyed directly into an NO analysis unit (Chemiluminescence Detector—CLD 822 Sr made by Eco Physics of Duernten, Switzerland) which detected and recorded the NO amounts in ppm (parts per million) that were contained in the gas mixture (in this context, also see Opländer et al. 2010—Nitric Oxide—Bio. Ch. 23: 275-283).\nUsing the solution described above, parallel to the above-mentioned NO detection, the amount of nitrogen dioxide radicals, as the most important oxidation product of NO, was detected during the same measurement. […]"}}}
{"smiles": "[N]=O", "note": "[NO, nitric oxide]", "values": [{"measurement": "diffusion coefficient of NO relative to that of oxygen or carbon monoxide", "setting": "[1]; at 37° C.", "result": "approximately 1.4"}, {"measurement": "diffusion path that can be achieved in the tissues", "setting": "[1]; calculated on the basis of the diffusion coefficient", "result": 500, "unit": "μm"}, {"measurement": "maximum solubility of NO in aqueous solutions", "setting": "[2]", "result": "approximately 2 mM"}, {"measurement": "drop of NO content", "setting": "[3]", "result": "about 10%"}, {"measurement": "concentration of NO2 (oxidation product of NO)", "setting": "[4]; occurred only after 10 minutes", "result": "~1.5", "unit": "ppm"}, {"measurement": "measured NO2 values compared with the initial values", "setting": "[4]; up to the maximum time value of 20 minutes", "result": "not significantly higher than the initial values"}]}
